Read-outs that look alike come from different tables or passages of the source. Numbered stars: 1 amine (or outer) side, 2 acyl side, 3 side chain; on linkers, the order of the positions; unused ones are H or OH. Bridge positions count the residues as written; N and C are the ends. Square brackets hold non-standard residues; d marks the D form. Peptide text beside a SMILES is read from it. hTyr = N[C@@H](CCc1ccc(O)cc1)C(=O)O; NMeA = CN[C@@H](C)C(=O)O; CO = O=C([*:1])[*:2]
Experiments:
[1] = Paucibacter toxinivorans (2C20) culture (OD600 0.4) in R2A media, pure MC-LR; conditions: Paucibacter toxinivorans 2C20 strain, 28 °C, up to 7 days
[2] = Y2 strain culture; individual peptide, peptide mix, and M. aeruginosa crude extract; conditions: Sphingosinicella microcystinivorans (Y2 strain)
[3] = enzymatic activity of a Sphingomonas species that possess mlr pathway; conditions: cited from earlier work
[4] = enzymatic biodegradation product of Sphingopyxis sp. USTB05; conditions: cited from earlier work
[5] = Paucibacter toxinivorans (2C20) culture in R2A media with cyanopeptide mix; conditions: Paucibacter toxinivorans 2C20 strain, 28 °C, up to 7 days
physchem = type: physicochemical; conditions: cells or culture medium, 3rd day, mean ± SD, n = 3, read-out: Peptide Remaining Concentration (%), Negative Control, 3rd Day
Protocol: OD-corrected P. toxinivorans was transferred to the 96-well microplate in a solution with fresh culture media and individual peptides. For all experimental conditions, microplates were prepared to allow different sampling times over 7 days of incubation in a shaker incubator at 150 rpm and 28 °C. Three different plates were initially prepared maintaining the same conditions, and they were, respectively, taken to be considered as sampling time at 0, 3, and 7th days. This procedure was established in order to sample only once from each well to avoid the effect of differing volumes and potential contamination. At each sampling time, 150 µL were taken and added to 150 µL of 80% aqueous methanol solution with 2% formic acid (in a 1.5 mL centrifuge tube) in order to kill bacteria and stop their metabolism, as well as to precipitate large proteins, which could affect analytical procedures. Samples were centrifuged for 15 min at 13,000× g. Supernatants were recovered, 1:10 diluted (100:900 μL) in aqueous methanol 80% and stored at −20 °C until ultrahigh performance liquid chromatography coupled to mass spectrometry analysis (UPLC–MS). This experimental design was applied in all experiments in order to evaluate the biodegradation of peptides by P. toxinivorans. All experimental conditions were carried out in biological replicates (n = 3) and with negative controls without bacteria.
All peptides studied were analyzed by UPLC–PDA–MS/MS (Waters®, Manchester, UK) as described previously by Turner et al.. Briefly, chromatographic separation was carried out using a Waters ACQUITY UPLC BEH C18 column (1.7 µm, 2.1 × 100 mm) held at 60 °C. Samples were kept in the sample manager at 10 °C and the injection volume was 5 µL. Mobile phase consisted of (A) water + 0.025% formic acid and (B) acetonitrile + 0.025% formic acid at a flow rate of 0.6 mL/min. The gradient consisted of 2% B initial condition rising to 25% B at 0.5 min holding until 1.5 min, rising to 40% B at 3.0 min, increasing further to 50% B at 4 min, a quick rise to 95% B and 4.1 min and held until 4.5 min before dropping back to 2% B at 5 min. Detection wavelength was set at 238 nm. Mass spectrometric detection was performed with a triple quadrupole mass spectrometer (Waters Xevo TQ-XS, Manchester, UK) equipped with an electrospray ionization (ESI) interface operating in positive ionization mode. Operational parameters were as follow: 150 °C source temperature, 600 °C desolvation temperature, 600 L/h desolvation gas flow (N2), 150 L/h cone gas flow, and 0.15 mL/min collision gas flow (Ar). Capillary voltage was held at 1.0 kV. Multiple Reaction Monitoring (MRM) transitions used as well as retention time, chemical structure, and respective formula of peptides can be found in Table S2. […]

[6] = Individual peptide, 10 μg/mL, UPLC-MS/MS

Question: Which cleaved bond [1] does the source give for Adda-Glu-Mdha-Ala-Leu-Masp-Arg here?
Answer: The cleaved bond was “Arg-Adda, day 3”.

Question: What about the not cleaved [2] of the same compound?
Answer: Its not cleaved is “did not degrade any cyanobacterial peptides”.

Question: And the fragment found [3]?
Answer: The fragment found was “linearized MC-LR (biodegradation product A)”.

Question: For Adda-Glu-Mdha-Ala-Tyr-Masp-Arg, which fragment found [4] is on record?
Answer: Its fragment found is “linearized MC-YR (peptide C)”.

Question: And the not cleaved [2]?
Answer: The not cleaved was “did not degrade any cyanobacterial peptides”.

Question: And the cleaved bond [5]?
Answer: Its cleaved bond is “Arg-Adda, day 7”.

Question: With CC[C@H](C)[C@@H]1NC(=O)[C@@H]2CSC(=N2)[C@@H]([C@@H](C)CC)NC(=O)c2csc(n2)CNC(=O)[C@H]2N=C1O[C@@H]2C [AC-A, aerucyclamide A] as the compound, how does the remaining at 72 h (physchem; In MIX: MC-LR 10 μg/mL, other cyanopeptides 1 µg/mL) read?
Answer: The remaining at 72 h was 109 ± 5.6%.

Question: Which remaining at 72 h (physchem; [6]) does the source give for CSCC[C@@H]1NC(=O)[C@@H]2CSC(=N2)[C@@H](Cc2ccccc2)NC(=O)c2csc(n2)CNC(=O)[C@H]2N=C1O[C@@H]2C [AC-D, aerucyclamide D] here?
Answer: The remaining at 72 h was 113 ± 1.6%.

Question: For CC(C)[C@@H]1NC(=O)[C@H](NC(=O)N[C@@H](Cc2ccc(O)cc2)C(=O)O)CCCCNC(=O)[C@H](Cc2ccccc2)NC(=O)[C@H](C)N(C)C(=O)[C@H](CCc2ccc(O)cc2)NC1=O [ANBP-A, anabaenopeptin A] ({Tyr-CO}-[dK]V[hTyr][NMeA]F; lactam 1-C), which remaining at 72 h (physchem; [6]) is on record?
Answer: The remaining at 72 h was 112 ± 8.1%.

Question: Which results are given for Adda-Glu-Mdha-Ala-Leu-Masp-Phe?
Answer: not cleaved [2]: did not degrade any cyanobacterial peptides; cleaved bond [5]: Phe-Adda, day 7

Question: Which remaining at 72 h (physchem; [6]) does the source give for CC(C)[C@@H]1NC(=O)[C@H](NC(=O)N[C@@H](CCCNC(=N)N)C(=O)O)CCCCNC(=O)[C@H](Cc2ccccc2)NC(=O)[C@H](C)N(C)C(=O)[C@H](CCc2ccc(O)cc2)NC1=O [ANBP-B, anabaenopeptin B] ({Arg-CO}-[dK]V[hTyr][NMeA]F; lactam 1-C) here?
Answer: The remaining at 72 h was 100 ± 17.1%.

Reference: publication PMC8068134 (Toxins, 2021)
